Laboratory results published in patent US10750743B2, “Pyridazinone herbicides” (E.I. DU PONT DE NEMOURS AND COMPANY, priority 2015, dated 2020).

Key:
Format in all cases: in vivo
[1] = system: foxtail, giant (giant foxtail, Setaria faberii); test: Test A postemergence application, visual injury rating; conditions: 0 to 100 scale, 0 no effect, 100 complete control
Method in brief: (§1)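 Injury ratings, 0 (no effect) to 100 (complete control), were scored visually versus untreated plants roughly 10 d after treatment under greenhouse conditions. Treatments used surfactant-containing solvent formulations, sprayed onto soil preemergence or onto one- to two-leaf seedlings (2-10 cm) postemergence, grown in a loam-sand mix.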

[2] = system: ryegrass, It. (Italian ryegrass, Lolium multiflorum); test: as above; conditions: 0 to 100 scale, 0 no effect, 100 complete control
Method in brief: as §1

[3] = system: ragweed (common ragweed, Ambrosia elatior); test: as above; conditions: 0 to 100 scale, 0 no effect, 100 complete control
Method in brief: as §1

[4] = system: blackgrass (Alopecurus myosuroides); test: as above; conditions: 0 to 100 scale, 0 no effect, 100 complete control
Method in brief: as §1

[5] = system: wheat (Triticum aestivum); test: as above; conditions: 0 to 100 scale, 0 no effect, 100 complete control
Method in brief: as §1

[6] = system: galium (catchweed bedstraw, Galium aparine); test: as above; conditions: 0 to 100 scale, 0 no effect, 100 complete control
Method in brief: as §1

[7] = system: pigweed (Amaranthus retroflexus); test: as above; conditions: 0 to 100 scale, 0 no effect, 100 complete control
Method in brief: as §1

corn (Zea mays) = test: as above; conditions: 0 to 100 scale, 0 no effect, 100 complete control
Method in brief: as §1

kochia (Kochia scoparia) [8] = test: as above; conditions: 0 to 100 scale, 0 no effect, 100 complete control
Method in brief: as §1

[9] = system: barnyardgrass (Echinochloa crus-galli); test: as above; conditions: 0 to 100 scale, 0 no effect, 100 complete control
Method in brief: as §1

[10] = system: sedge, umbrella (small-flower umbrella sedge, Cyperus difformis); test: Test B flooded paddy test, visual rating; conditions: Flood, 250 g ai/ha, applied to paddy water, rated after 13 to 15 d
Method in brief: (§2)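 Ratings use a 0-100 visual scale, where 100 is complete control, and compare treated plants with controls after 13 to 15 d of greenhouse growth. Compound went straight into paddy water kept 3 cm over the soil surface, applied to seedlings at the 2-leaf stage.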

rice (Oryza sativa) = test: Test B flooded paddy test, visual rating; conditions: Flood, 250 g ai/ha, applied to paddy water, rated after 13 to 15 d
Method in brief: as §2

[11] = system: ducksalad (Heteranthera limosa); test: Test B flooded paddy test, visual rating; conditions: Flood, 250 g ai/ha, applied to paddy water, rated after 13 to 15 d
Method in brief: as §2

[12] = system: barnyardgrass (Echinochloa crus-galli); test: Test B flooded paddy test, visual rating; conditions: Flood, 250 g ai/ha, applied to paddy water, rated after 13 to 15 d
Method in brief: as §2

[13] = system: foxtail, giant (giant foxtail, Setaria faberii); test: Test A preemergence, directed soil spray, visual injury rating; conditions: 0 is no effect, 100 is complete control
Method in brief: as §1

[14] = system: ryegrass, It. (Italian ryegrass, Lolium multiflorum); test: as above; conditions: 0 is no effect, 100 is complete control
Method in brief: as §1

[15] = system: ragweed (common ragweed, Ambrosia elatior); test: as above; conditions: 0 is no effect, 100 is complete control
Method in brief: as §1

[16] = system: pigweed (Amaranthus retroflexus); test: as above; conditions: 0 is no effect, 100 is complete control
Method in brief: as §1

kochia (Kochia scoparia) [17] = test: as above; conditions: 0 is no effect, 100 is complete control
Method in brief: as §1

[18] = system: barnyardgrass (Echinochloa crus-galli); test: as above; conditions: 0 is no effect, 100 is complete control
Method in brief: as §1

| Compound | Foxtail, Giant plant response rating ([1]; 125 g ai/ha) | Ryegrass, It. plant response rating ([2]; 125 g ai/ha) | Ragweed plant response rating ([3]; 125 g ai/ha) | Blackgrass plant response rating ([4]; 125 g ai/ha) | Wheat plant response rating ([5]; 125 g ai/ha) | Galium plant response rating ([6]; 125 g ai/ha) | Pigweed plant response rating ([7]; 125 g ai/ha) | Corn plant response rating (corn (Zea mays); 125 g ai/ha) | Kochia plant response rating (kochia (Kochia scoparia) [8]; 125 g ai/ha) | Barnyardgrass plant response rating ([9]; 125 g ai/ha) | Sedge, Umbrella plant response rating (0 to 100 scale, 0 is no effect, 100 is complete control) [10] | Rice plant response rating (0 to 100 scale, 0 is no effect, 100 is complete control) (rice (Oryza sativa)) | Ducksalad plant response rating (0 to 100 scale, 0 is no effect, 100 is complete control) [11] | Barnyardgrass plant response rating (0 to 100 scale, 0 is no effect, 100 is complete control) [12] | Plant response rating (0 to 100 scale), Foxtail, Giant ([13]; 125 g ai/ha) | Plant response rating (0 to 100 scale), Ryegrass, It. ([14]; 125 g ai/ha) | Plant response rating (0 to 100 scale), Ragweed ([15]; 125 g ai/ha) | Plant response rating (0 to 100 scale), Pigweed ([16]; 125 g ai/ha) | Plant response rating (0 to 100 scale), Kochia (kochia (Kochia scoparia) [17]; 125 g ai/ha) | Plant response rating (0 to 100 scale), Barnyardgrass ([18]; 125 g ai/ha) | further results |
| --- | --- | --- | --- | --- | --- | --- | --- | --- | --- | --- | --- | --- | --- | --- | --- | --- | --- | --- | --- | --- | --- |
| Cc1nn(C)c(=O)c(-c2c(C)sc3ncccc23)c1OC(=O)C1CC1 [Compound 23] | 0 | 0 | 0 | 0 | 0 | 0 | 0 | 0 | 0 | 0 | 0 | 0 | 0 | 0 | 0 | 0 | 0 | 0 | 0 | 0 | Foxtail, Giant plant response rating ([1]; 500 g ai/ha): 0; Ryegrass, It. plant response rating ([2]; 500 g ai/ha): 10; Ragweed plant response rating ([3]; 500 g ai/ha): 0; Blackgrass plant response rating ([4]; 500 g ai/ha): 0; Wheat plant response rating ([5]; 500 g ai/ha): 0; Galium plant response rating ([6]; 500 g ai/ha): 0; Pigweed plant response rating ([7]; 500 g ai/ha): 40; Corn plant response rating (corn (Zea mays); 500 g ai/ha): 20; Kochia plant response rating (kochia (Kochia scoparia) [8]; 500 g ai/ha): 0; Barnyardgrass plant response rating ([9]; 500 g ai/ha): 0; Plant response rating (0 to 100 scale), Foxtail, Giant ([13]; 500 g ai/ha): 0; Plant response rating (0 to 100 scale), Ryegrass, It. ([14]; 500 g ai/ha): 0; Plant response rating (0 to 100 scale), Ragweed ([15]; 500 g ai/ha): 0; Plant response rating (0 to 100 scale), Pigweed ([16]; 500 g ai/ha): 0; Plant response rating (0 to 100 scale), Kochia (kochia (Kochia scoparia) [17]; 500 g ai/ha): 0; Plant response rating (0 to 100 scale), Barnyardgrass ([18]; 500 g ai/ha): 0 |
| CCOC(=O)Oc1c(C)nn(C)c(=O)c1-c1c(C)sc2ncccc12 [Compound 24] | 0 | 0 | 0 | 0 | 0 | 0 | 0 | 0 | 0 | 0 | 0 | 0 | 0 | 0 | 0 | 10 | 0 | 0 | 0 | 0 | Foxtail, Giant plant response rating ([1]; 500 g ai/ha): 0; Ryegrass, It. plant response rating ([2]; 500 g ai/ha): 20; Ragweed plant response rating ([3]; 500 g ai/ha): 0; Blackgrass plant response rating ([4]; 500 g ai/ha): 0; Wheat plant response rating ([5]; 500 g ai/ha): 0; Galium plant response rating ([6]; 500 g ai/ha): 0; Pigweed plant response rating ([7]; 500 g ai/ha): 10; Corn plant response rating (corn (Zea mays); 500 g ai/ha): 10; Kochia plant response rating (kochia (Kochia scoparia) [8]; 500 g ai/ha): 0; Barnyardgrass plant response rating ([9]; 500 g ai/ha): 0; Plant response rating (0 to 100 scale), Foxtail, Giant ([13]; 500 g ai/ha): 0; Plant response rating (0 to 100 scale), Ryegrass, It. ([14]; 500 g ai/ha): 20; Plant response rating (0 to 100 scale), Ragweed ([15]; 500 g ai/ha): 0; Plant response rating (0 to 100 scale), Pigweed ([16]; 500 g ai/ha): 0; Plant response rating (0 to 100 scale), Kochia (kochia (Kochia scoparia) [17]; 500 g ai/ha): 0; Plant response rating (0 to 100 scale), Barnyardgrass ([18]; 500 g ai/ha): 0 |
| CCC(=O)Oc1c(C)nn(C)c(=O)c1-c1cccc2cc(C)oc12 [Compound 26] | 30 | 80 | 30 | 20 | 0 | 90 | 40 | 0 | 20 | 10 | 0 | 0 | 0 | 0 | 0 | 80 | 10 | 10 | 30 | 0 | Foxtail, Giant plant response rating ([1]; 31 g ai/ha): 0; Ryegrass, It. plant response rating ([2]; 31 g ai/ha): 50; Ragweed plant response rating ([3]; 31 g ai/ha): 0; Blackgrass plant response rating ([4]; 31 g ai/ha): 0; Wheat plant response rating ([5]; 31 g ai/ha): 0; Galium plant response rating ([6]; 31 g ai/ha): 70; Pigweed plant response rating ([7]; 31 g ai/ha): 30; Corn plant response rating (corn (Zea mays); 31 g ai/ha): 0; Kochia plant response rating (kochia (Kochia scoparia) [8]; 31 g ai/ha): 20; Barnyardgrass plant response rating ([9]; 31 g ai/ha): 0; Plant response rating (0 to 100 scale), Foxtail, Giant ([13]; 31 g ai/ha): 0; Plant response rating (0 to 100 scale), Ryegrass, It. ([14]; 31 g ai/ha): 10; Plant response rating (0 to 100 scale), Ragweed ([15]; 31 g ai/ha): 0; Plant response rating (0 to 100 scale), Pigweed ([16]; 31 g ai/ha): 0; Plant response rating (0 to 100 scale), Kochia (kochia (Kochia scoparia) [17]; 31 g ai/ha): 0; Plant response rating (0 to 100 scale), Barnyardgrass ([18]; 31 g ai/ha): 0 |
